How the values were obtained:
[1] = test system: gamma-glutamyl cysteine synthetase mRNA; assay: γ-glutamylcysteine synthetase production promoting activity by RT-PCR; assay type: cell-based, human; settings: compound 20 μg/ml, 8 hours
Procedure: After 8 hours, total RNA was collected by using TRIZOL reagent (Life Technologies Oriental, Inc.) following a protocol.
Gamma-glutamyl cysteine synthetase mRNA and G3PDH mRNA expression promoting activities were measured with RT-PCR high (Toyobo Co., Ltd.) using the collected total RNA. The G3PDH gene is known as a housekeeping gene and expresses in all cells constantly, so that the gene is widely used as a control gene. The following primers were used for PCR: 5′-TGA AAC TCT GCA AGA GAA GOG G-3′ (SEQ ID NO: 1) and 5′-GCT TCA TCT GGA AAG AGO AGG G -3′ (SEQ ID NO: 2) (gamma-glutamyl cysteine synthetase); and 5′-ACCACAGTCCATGCCATCAC-3′ (SEQ ID NO: 3) and 5′-TCCACCACCCTGTTGCTGTA-3′ (SEQ ID NO: 4) (G3PDH). […] Then, the intensity of staining was measured using image analysis software ImageMaster 1D (manufactured by Amersham Pharmacia Biotech Co.). The group in which no test substances were added (1% ethanol) was taken as a control, and the amount of expression was evaluated by a comparison of the amounts of expression in cases where test substances were added (with a value obtained by dividing the staining intensity of the γ-glutamylcysteine synthetase mRNA by the staining intensity of G3PDH taken as 1). […]

[2] = test system: cystine transporter (xCT); assay: Cystine transporter (xCT) production ability by Western blotting; assay type: cell-based, human; settings: compound 20 μg/ml, 24 hours
Description: When the cells were 80% confluent, the medium was exchanged with DMEM containing 0.5% FBS.

[3] = test system: B16 melanoma cells; assay: Skin whitening test (melanin suppression); assay type: cell-based, mouse; settings: 3 days; for Melanin suppression rate (compound): 20 μg/ml; for Melanin suppression rate (positive control): 3 mM
Procedure: Melanin suppressing activity was measured by the following test using the extracts of Lamium album, Euphrasia officinalis, Plantago psyllium, Plantago psyllium seeds, Olea europaea, Forsythia suspensa, Conandron ramondioides Siebold et Zucc, Osmanthus fragrans, Osmanthus asiaticus, Syringa vulgaris, Verbena officinalis L., and Momordica charantia L., and hydrolysates thereof obtained in Example 1, DPE obtained in Examples 3 and 4, and the DPE glycosides obtained in Example 5.
Cultured B16 melanoma cells derived from mouse provided as melanin producing cells were cultured in a minimum basic culture medium (MEM) to which FBS was added so as to have a final concentration of 10%. At a concentration of 3×10^3 cell/ml, those cells were inoculated in a 6-well plate (6 ml in each well), and were cultured in a CO2 incubator for 5 days, after which the culture medium was exchanged. […] Then, after further culturing for 3 days under the same conditions, the cells were washed and stripped by a scraper treatment. The cells were then solubilized with sodium dodecylsulfate (SDS), and the absorbance values at 475 nm and 260 nm were measured (these values were taken as S475 and S260). The melanin suppression rate was calculated using the following Equation 1, with the absorbance values at 475 nm and 260 nm obtained for cells cultured in a culture medium to which no test substances were added taken as C475 and C260, respectively. 3 mM vitamin C and 3 mM kojic acid were used as positive controls. As is shown in Tables 7 and 8, the production of melanin is suppressed by the addition of the test substances, so that the test substances show a skin whitening effect.

[4] = test system: Clone 9 human liver cells; assay: Effect on liver cell (intracellular glutathione); settings: compound 10 μg/ml, 24 hours
Procedure: Clone 9 human liver cells (8×10^6 cells) (manufactured by Dainippon Pharmaceutical Co., Ltd.) were inoculated in a petri dish (manufactured by Nunc) with a diameter of 6 cm, and the cells were cultured in DMEM containing 10% deactivated FBS for 3 days at 37° C. in the presence of 5% carbon dioxide gas. When the cells were 80% confluent, the medium was exchanged with DMEM containing 0.5% FBS. After the cells were naturalized for 24 hours, the culture medium was removed by suction and exchanged with fresh DMEM containing 0.5% FBS, and the test substances were dissolved in ethanol. […] 24 hours after the addition, the cells were collected, and glutathione measurements were performed by the method described in Example 5.

[5] = test system: CCD 1059 normal human skin fibroblasts; assay: Resistance to active oxygen (singlet oxygen, rose bengal) cell damage after glutathione potentiation; assay type: cell-based; settings: compound 20 μg/ml, 24 h preincubation then removed; singlet oxygen exposure; untreated control 28
Procedure: Then, preincubation was performed for 24 hours at 37° C., so that the intracellular glutathione concentration was increased. […] The present test was performed in order to evaluate whether it was possible to alleviate the effects of the active oxygen that was generated by increasing the intracellular glutathione concentration, so that the plants, hydrolysates thereof, DPE, and DPE glycosides discovered by the present invention were completely removed after the preincubation.
After the cells were washed, rose bengal (which is a singlet oxygen generating agent) was dissolved in Hanks solution so as to have a final concentration of 50 μM, and was added to the cells. The cells were then irradiated for 10 minutes with visible light, so that the cells were exposed to singlet oxygen. The time for which the cells were immersed in Hanks solution and the time for which the cells were exposed to visible light were the same for all of the groups. After the exposure, the cells were again washed with Hanks solution, and the culture medium was exchanged with DMEM containing 10% FBS. After 3 days, the cells were counted by means of a Coulter counter, and the numbers of living cells were compared. In this comparison, an evaluation was performed with the number of cells in a non-exposed group that was not exposed to singlet oxygen taken as 100%. It is seen from Table 6 that the survival rates of the respective groups exposed to singlet oxygen were improved (compared to a group that was not treated with any test substance (control)) by the addition of the above-mentioned plant extracts, hydrolysates thereof, DPE, and DPE glycosides.

[6] = test system: CCD 1059 normal human skin fibroblasts; assay: Effect of combined use of S-containing compound (cystine) on intracellular glutathione; assay type: cell-based; settings: compound 10 μg/ml, control = cystine only
Procedure: CCD 1059 normal human skin fibroblasts (1.5×10^5 cells) (manufactured by Dainippon Pharmaceutical Co., Ltd.) were inoculated in a petri dish (manufactured by Nunc) with a diameter of 6 cm, and the cells were cultured in Dulbecco's modified Eagle's medium (DMEM) containing 10% deactivated fetal bovine serum (hereafter abbreviated to “FBS”) for 3 days at 37° C. in the presence of 5% carbon dioxide gas. When the cells were 80% confluent, the medium was exchanged with DMEM containing 0.5% fetal bovine serum (hereafter abbreviated to “FBS” in some cases). […] Then, the absorbance at 405 nm was measured, and this was taken as the glutathione concentration.
However, since it was desired to add an S-containing compound at an arbitrary concentration, the culture medium used in the case of this addition was DMEM that contains no S-containing compound (i.e., a medium that was free of methionine, cysteine, and cystine). […] A comparison was made by calculation from the ratio relative to respective control groups in which only cystine was added (groups in which only cystine was added were taken as control groups, and the activities of the respective test substance groups were evaluated as ratios relative to the control groups with the activities of the respective control groups taken as 1).

[7] = test system: rats; assay: Long-term oral administration to rats (toxicity); assay type: in vivo; settings: 100 days, 1,000 mg/kg per day
Description: DPE or a glycoside thereof has a low toxicity.

[8] = test system: CCD 1059 normal human skin fibroblasts; assay: Measurement of glutathione activity (intracellular glutathione, method of Baker et al.); assay type: cell-based; settings: 24 hours
Procedure: The cells were then collected after being cultured for 24 hours. […] The collected cells were disrupted using sonication, and proteins were removed using metaphosphoric acid. Then, the solutions were again neutralized, to thereby produce samples used for glutathione measurement. The measurement of glutathione was performed using the method of Baker et al. (Anal. […] Then, the absorbance at 405 nm was measured, and this was taken as the glutathione concentration.

[9] = test system: CCD 1059 normal human skin fibroblasts; assay: Effect of combined use of S-containing compound (cysteine) on intracellular glutathione; assay type: cell-based; settings: compound 2.5 μg/ml, control = cysteine only
Procedure: CCD 1059 normal human skin fibroblasts (1.5×10^5 cells) (manufactured by Dainippon Pharmaceutical Co., Ltd.) were inoculated in a petri dish (manufactured by Nunc) with a diameter of 6 cm, and the cells were cultured in Dulbecco's modified Eagle's medium (DMEM) containing 10% deactivated fetal bovine serum (hereafter abbreviated to “FBS”) for 3 days at 37° C. in the presence of 5% carbon dioxide gas. When the cells were 80% confluent, the medium was exchanged with DMEM containing 0.5% fetal bovine serum (hereafter abbreviated to “FBS” in some cases). After the cells were naturalized for 24 hours, the culture medium was removed by suction and exchanged with fresh DMEM containing 0.5% FBS and the test substances were dissolved in ethanol. […] The cells were then collected after being cultured for 24 hours. […] The collected cells were disrupted using sonication, and proteins were removed using metaphosphoric acid. Then, the solutions were again neutralized, to thereby produce samples used for glutathione measurement. […] To describe the method briefly, reduced nicotinamide adenine dinucleotide phosphate (NADPH), glutathione reductase, and 5,5′-dithiobis(2-nitrobenzoic acid) (DNTB) provided as a coloring agent were added to a 2-(N-morpholino)ethanesulfonate buffer (MES buffer), and the mixture was reacted with each measurement sample or a standard substance used to produce a calibration curve. Then, the absorbance at 405 nm was measured, and this was taken as the glutathione concentration.
However, since it was desired to add an S-containing compound at an arbitrary concentration, the culture medium used in the case of this addition was DMEM that contains no S-containing compound (i.e., a medium that was free of methionine, cysteine, or cystine). […] A comparison was made by calculation from the ratio relative to respective control groups in which only cysteine was added in the same amounts (groups in which only cysteine was added were taken as control groups in which the respective final concentrations of cysteine were 200 and 400 μM, and the activities of the respective test substance groups were evaluated as ratios relative to the control groups with the activities of the respective control groups taken as 1).

Row | Structure (SMILES) | Gamma-glutamyl cysteine synthetase/G3PDH (Relative to control) [1] | Amount of xCT expression (Relative to control) [2] | Melanin suppression rate (compound) [3] [%] | Effect on hepatocyte (glutathione), ratio to control [4] | Survival rate (%: based on non-exposed group) [5] [%] | Combined effect with cystine, ratio to control, cystine 200 μM added group [6] | Mortality [7] | Glutathione enhancing activity (compound), ratio to control ([8]; 2.5 μg/ml) | Glutathione enhancing activity (compound), ratio to control ([8]; 5 μg/ml) | Glutathione enhancing activity (compound), ratio to control ([8]; 10 μg/ml) | Glutathione enhancing activity (compound), ratio to control ([8]; 20 μg/ml) | Combined effect with cysteine, ratio to control, cysteine 200 μM added group [9] | Combined effect with cysteine, ratio to control, cysteine 400 μM added group [9] | Melanin suppression rate (positive control) [3] [%]
1 | OCCc1ccc(O)c(O)c1 [DPE, 2-(3,4-dihydroxyphenyl)ethanol] | 8.2 | 4.8 | 52.3 | 1.16 | 61 | 3.42 | no cases of mortality | 1.36 | 1.85 | 2.33 | 2.74 | 1.25 | 1.89 | –
2 | OC[C@H]1O[C@@H](OCCc2ccc(O)c(O)c2)[C@H](O)[C@@H](O)[C@@H]1O [DPE-1-O-β-D-Glucopyranocide, 2-(3,4-dihydroxyphenyl)ethanol-1-O-β-D-glucopyranocide] | – | – | 24.6 | – | 42 | – | – | – | – | – | – | – | – | –
3 | OCCc1ccc(O)c(O[C@@H]2O[C@H](CO)[C@@H](O)[C@H](O)[C@H]2O)c1 [DPE-3′-O-β-D-Glucopyranocide, 2-(3,4-dihydroxyphenyl)ethanol-3′-O-β-D-glucopyranocide] | 3.8 | 1.3 | 32.3 | 1.26 | 46 | 1.56 | – | 1.15 | 1.19 | 1.25 | 1.73 | 1.26 | 1.52 | –
4 | OCCc1ccc(O[C@@H]2O[C@H](CO)[C@@H](O)[C@H](O)[C@H]2O)c(O)c1 [DPE-4′-O-β-D-Glucopyranocide, 2-(3,4-dihydroxyphenyl)ethanol-4′-O-β-D-glucopyranocide] | – | – | 35.4 | – | 37 | – | – | – | – | – | – | – | – | –
5 | O=c1cc(CO)occ1O [Kojic acid, reference compound] | – | – | – | – | – | – | – | – | – | – | – | – | – | 39.9
6 | O=C1O[C@H]([C@@H](O)CO)C(O)=C1O [Vitamin C, reference compound] | – | – | – | – | – | – | – | – | – | – | – | – | – | 23.0
